From publication PMC4757856 (Medchemcomm, 2015) come the findings set out here.

The target of data set [1] is T1, PfNMT (Plasmodium falciparum, UniProt Q9U419).
T1 sequence (Q9U419 1-410): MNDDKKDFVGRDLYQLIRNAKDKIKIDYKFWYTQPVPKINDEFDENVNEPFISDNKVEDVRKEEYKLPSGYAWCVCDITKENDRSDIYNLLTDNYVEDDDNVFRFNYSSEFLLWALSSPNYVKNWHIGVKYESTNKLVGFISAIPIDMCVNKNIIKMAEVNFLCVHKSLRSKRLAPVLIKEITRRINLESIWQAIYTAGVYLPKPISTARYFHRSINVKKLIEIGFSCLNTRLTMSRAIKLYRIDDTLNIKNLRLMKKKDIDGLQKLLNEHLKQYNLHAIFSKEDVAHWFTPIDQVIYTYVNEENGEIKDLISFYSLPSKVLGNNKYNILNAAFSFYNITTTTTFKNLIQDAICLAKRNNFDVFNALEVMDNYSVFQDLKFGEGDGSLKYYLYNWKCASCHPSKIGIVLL
Nature of the data set: NMT enzyme inhibition assay. It counts as biochemical. The note with it: for LipE: LipE = pKi (PfNMT) - clog P.

Data set [2] relates to HepG2 cell line. Nature of the data set: HepG2 toxicity assay. It counts as cell-based, human. Particulars: 48 hours, MTS.

Molecules are shown by their SMILES.

Regarding `c1ccc(Cc2noc(-c3cccnc3OC3CCNCC3)n2)cc1` [Compound 7], in data set [1] (PfNMT, 7 vs. 3), the “fold improvement in enzyme affinity” value was determined as 10 fold.

Turning to `COc1cccc(Cc2noc(-c3ccccc3OC3CCNCC3)n2)c1` [Compound 18], the LipE in data set [1] was 3.32.

In data set [2], `Cc1nn(C)c(C)c1Cc1noc(-c2cccnc2OC2CCNCC2)n1` [Compound 25] showed an LD50 greater than 100 µM.

Take `Cc1nn(C)c(C)c1Cc1noc(-c2cccnc2OC2CCN(C(C)C)CC2)n1` [Compound 28]: the LD50 in data set [2] was greater than 100 µM.

As to `c1cnc(OC2CCNCC2)c(-c2nc(Cc3cccc4ncccc34)no2)c1` [Compound 30], the LipE in data set [1] is 5.63.
